Values after ≈ are worked out from the molar mass of the structure shown.
Assays:
Malassezia pachydermatis = assay: Colorimetric AlamarBlue microtiterplate MIC determination of fatty acids; assay type: cell-based; settings: one M. pachydermatis strain, 4-5 days at 30° C.
Excerpt: (§1) A colorimetric method for quantitative measurement of the susceptibility of Staphylococcus aureus, Staphylococcus intermedius and Malassezia pachydermatis strains to fatty acids was developed. This method is based on the assays described by Hogan, J. S., et al, 1987, J. Dairy, Sci., 70, 927-934 and Tiballi, R. N., et al., 1995, J. Clin. Microbiol., 33 (4), 915-917.
(§2) The microorganisms used in this study were Staphylococcus aureus FSM 51, 52, 84 (food isolates), ATCC 6538, Staphylococcus intermedius BCCM™/LMG 9079, 13351 and Malassezia pachidermatis ATCC 14522. Staphylococcus strains were grown in Lab-Lemco broth (LL broth, Oxoid CM 15) for 18-20 h at 30° C. and Malassezia was cultivated for 5 days at 30° C. in liquid Dixon medium (30 g Malt extract, 20 g Oxbile, 15 g Agar, 5 g Mycological peptone, 2.5 g Glycerol mono-oleate, 10 ml Tween™ 40, pH=5.4±0.2). After washing in saline (Oxoid, BR53), cell pellets were resuspended in LL broth supplemented with 0.15% agar (w/v).
(§3) Minimal inhibitory concentrations (MICs) of palmitoleic, lauric and oleic acids (NU-CHECK-PREP, Inc, DK, U-40-A, N-12-A, U-46-A respectively) were investigated in a microtiterplate assay using an oxidation-reduction dye, AlamarBlue™ (Interchim, Fr), as an indicator of growth. Each plate was set up with each of the test microorganisms as follows: one column, 110 μl of sterile LL broth supplemented with 0.15% agar (negative control), one column, 100 μl of sterile LL broth supplemented with 0.15% agar plus 10 μl of test microorganism (positive control), other columns, 100 μl of serial two fold dilutions of the test fatty acids (diluted in LL broth supplemented with 0.15% agar) plus 10 μl of microorganism (final concentration of 10^3-10^4 cell/ml). Plates were incubated at 30° C. in ambient air and examined at 24 h and 4-5 days for Staphylococcus strains and Malassezia respectively. After incubation period, 25 μl of AlamarBlue™ solution (¼ diluted with 10 mM Phosphate Buffered Saline 0.05% Tween 20, Sigma P3563) were added to each well. After a second incubation of 2 h (Staphylococcus) and 1 day (Malassezia) at 30° C., endpoints were determined visually by observing a color change from blue (no growth) to pink (growth). MIC was defined as the lowest fatty acid concentration showing no growth (any color change).

Staphylococcus aureus = assay: as above; assay type: cell-based; settings: four S. aureus strains, 24 h at 30° C.
Excerpt: as §1, §2, §3

[1] = system: Staphylococcus intermedius; assay: as above; assay type: cell-based; settings: two S. intermedius strains, 24 h at 30° C.
Excerpt: as §1, §2, §3

[2] = system: Pneumococci, Streptococcus, Corynebacteria, Micrococci, Candida, Staphylococcus aureus; settings: several skin pathogens; cited from earlier work
[3] = human trial, 600 mg/day for 24 weeks; cited from earlier work

Row | SMILES | MIC range (Malassezia pachydermatis) [µg/mL] | MIC range (Staphylococcus aureus) [µg/mL] | MIC range [1] [µg/mL] | Inhibition of skin pathogens in vitro (in words) [2] | Improvement of hand dermatitis (in words) [3]
1 | CCCCCCCCCCCC(=O)O [Lauric, lauric acid] | <200 | <200 to 400 | <200 to 800 | inhibitory | –
2 | CCCCCCCC/C=C\CCCCCCCC(=O)O [Oleic, oleic acid] | >25000 | >25000 | >25000 | – | –
3 | CCCCCC/C=C\CCCCCCCC(=O)O [Palmitoleic, palmitoleic acid] | – | 20 (≈ 78.6 µM) | 20 to 100 | inhibitory | –
4 | CCCCC/C=C\C/C=C\CCCCCCCC(=O)O [linoleic acid] | – | – | – | inhibitory | –
5 | CCCCC/C=C\C/C=C\C/C=C\CCCCC(=O)O [γ-linolenic acid] | – | – | – | – | did not improve hand dermatitis significantly

Reference: patent publication US7625583B2, “Dietary lipids for improving skin and coat of pets” (Nestec S.A., priority 2000, dated 2009)
